Measured values reported in ChEMBL document CHEMBL1201862, “PubChem BioAssay data set” (2004).
Active and inactive are the calls of the source.

Tests used:
[1] = target: T1, Calpain-2 catalytic subunit (Sus scrofa, UniProt P43367); experiment: m-calpain protease blockers, concentration series – biochemical, fluorogenic peptide substrate, dose response (AID 1420); format: functional
T1 sequence (P43367 whole entry): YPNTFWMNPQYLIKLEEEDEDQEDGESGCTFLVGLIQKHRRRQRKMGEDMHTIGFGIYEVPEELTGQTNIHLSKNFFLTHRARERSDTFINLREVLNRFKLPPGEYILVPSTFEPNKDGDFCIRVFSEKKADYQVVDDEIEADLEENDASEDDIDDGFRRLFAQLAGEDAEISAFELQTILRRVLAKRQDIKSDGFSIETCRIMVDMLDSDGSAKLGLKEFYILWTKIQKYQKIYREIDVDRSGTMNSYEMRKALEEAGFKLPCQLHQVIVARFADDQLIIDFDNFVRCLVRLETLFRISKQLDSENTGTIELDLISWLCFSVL

H9c2 = experiment: cells; format: functional, cell-based; conditions: Rattus norvegicus, H9c2, Myocardium;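 further: confirmatory concentration-response retest of ultra-high-throughput screening hits for modulation of myocardial damage; cell death induced by hydrogen peroxide oxidative stress; compound pretreatment for 60 min then peroxide exposure for 2 h; potency is for protecting the cells against peroxide damage rather than for killing them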
[2] = target: T2, Short transient receptor potential channel 4 (Mus musculus, UniProt Q9QUQ5); experiment: calcium entry via TRPC4 opening agents – cell-based, HEK293 TRPC4/mu-opioid, Fluo-4 calcium, dose response (AID 434937); format: functional
T2 sequence (Q9QUQ5 whole entry): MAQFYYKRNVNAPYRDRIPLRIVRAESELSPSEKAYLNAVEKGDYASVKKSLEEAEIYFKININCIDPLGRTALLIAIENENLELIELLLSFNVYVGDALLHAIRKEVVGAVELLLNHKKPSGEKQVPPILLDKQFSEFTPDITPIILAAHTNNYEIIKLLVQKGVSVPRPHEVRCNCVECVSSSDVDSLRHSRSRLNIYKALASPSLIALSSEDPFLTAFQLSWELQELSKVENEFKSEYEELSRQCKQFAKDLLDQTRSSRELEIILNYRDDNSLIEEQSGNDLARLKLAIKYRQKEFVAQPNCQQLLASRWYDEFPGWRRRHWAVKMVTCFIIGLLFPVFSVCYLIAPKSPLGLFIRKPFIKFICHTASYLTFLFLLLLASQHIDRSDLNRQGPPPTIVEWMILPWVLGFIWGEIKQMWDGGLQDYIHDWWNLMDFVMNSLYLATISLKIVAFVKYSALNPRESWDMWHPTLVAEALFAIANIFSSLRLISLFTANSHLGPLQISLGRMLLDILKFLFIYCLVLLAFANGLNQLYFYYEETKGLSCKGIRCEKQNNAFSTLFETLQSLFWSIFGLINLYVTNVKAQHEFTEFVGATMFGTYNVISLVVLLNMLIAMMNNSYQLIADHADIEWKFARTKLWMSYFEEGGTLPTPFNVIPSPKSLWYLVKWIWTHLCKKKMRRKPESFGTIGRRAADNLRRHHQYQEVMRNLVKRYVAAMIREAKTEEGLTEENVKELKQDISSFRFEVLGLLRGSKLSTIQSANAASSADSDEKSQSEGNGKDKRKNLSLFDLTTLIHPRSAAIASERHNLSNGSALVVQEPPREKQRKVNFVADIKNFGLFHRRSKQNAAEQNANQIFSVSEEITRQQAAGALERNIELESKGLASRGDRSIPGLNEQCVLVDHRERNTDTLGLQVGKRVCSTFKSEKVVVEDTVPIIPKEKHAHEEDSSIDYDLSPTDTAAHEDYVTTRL

Genome polyprotein = Genome polyprotein (dengue virus type 2, UniProt P29990); experiment: flavivirus cap methylation enzyme inhibition – biochemical, confirmation dose response, primary screen (AID 588689); format: functional
Sequence of Genome polyprotein (P29990 2492-3391 limits assumed): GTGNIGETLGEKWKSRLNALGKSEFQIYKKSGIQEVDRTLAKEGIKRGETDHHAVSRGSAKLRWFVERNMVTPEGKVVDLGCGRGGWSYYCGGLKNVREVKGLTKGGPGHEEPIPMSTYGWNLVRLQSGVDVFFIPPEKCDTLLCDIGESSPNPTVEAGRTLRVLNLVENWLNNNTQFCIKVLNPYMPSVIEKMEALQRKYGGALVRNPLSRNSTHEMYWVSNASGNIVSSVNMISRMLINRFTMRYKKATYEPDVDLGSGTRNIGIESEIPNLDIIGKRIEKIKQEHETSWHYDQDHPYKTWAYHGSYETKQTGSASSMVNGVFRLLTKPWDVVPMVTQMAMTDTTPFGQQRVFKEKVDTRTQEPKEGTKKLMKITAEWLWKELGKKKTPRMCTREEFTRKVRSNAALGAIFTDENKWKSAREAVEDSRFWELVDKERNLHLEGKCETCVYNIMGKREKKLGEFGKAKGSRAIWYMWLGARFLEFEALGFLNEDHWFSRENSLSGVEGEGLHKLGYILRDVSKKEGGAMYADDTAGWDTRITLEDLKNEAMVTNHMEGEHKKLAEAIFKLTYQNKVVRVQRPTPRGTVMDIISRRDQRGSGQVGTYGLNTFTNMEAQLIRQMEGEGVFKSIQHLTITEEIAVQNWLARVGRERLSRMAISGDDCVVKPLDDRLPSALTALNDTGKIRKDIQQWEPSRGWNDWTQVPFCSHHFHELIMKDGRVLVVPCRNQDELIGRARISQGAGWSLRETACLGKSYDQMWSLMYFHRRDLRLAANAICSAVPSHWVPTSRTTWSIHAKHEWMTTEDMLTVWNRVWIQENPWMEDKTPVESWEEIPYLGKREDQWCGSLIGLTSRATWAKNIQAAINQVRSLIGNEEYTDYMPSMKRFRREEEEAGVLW

[3] = target: T3, Carboxy-terminal domain RNA polymerase II polypeptide A small phosphatase 1 (Homo sapiens, UniProt Q9GZU7); experiment: CTDSP1 inhibitors, concentration-response, biochemical, absorbance readout, ultra-high-throughput screen actives (AID 540297); format: functional
T3 sequence (Q9GZU7 whole entry): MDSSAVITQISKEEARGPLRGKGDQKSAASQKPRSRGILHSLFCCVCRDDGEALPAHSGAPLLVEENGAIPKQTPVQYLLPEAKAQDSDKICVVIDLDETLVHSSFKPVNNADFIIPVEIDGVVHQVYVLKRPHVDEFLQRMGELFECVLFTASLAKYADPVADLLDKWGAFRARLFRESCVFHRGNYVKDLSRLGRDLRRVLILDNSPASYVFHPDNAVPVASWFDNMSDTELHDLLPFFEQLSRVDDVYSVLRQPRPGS

[4] = Trypanosoma cruzi growth suppression in host cells – NIH3T3 host cells, beta-gal luminescence, confirmation (AID 2044); format: functional, cell-based;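 further: intracellular parasites grown in NIH/3T3 mouse fibroblasts as host cells; luminescent beta-galactosidase reporter signal from transgenic T. cruzi replicating inside host cells; inhibitors lower the luminescence signal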
[5] = NIH3T3 cell viability loss – ATP luminescence, mouse fibroblasts, counter-screen, dose response (AID 2010); format: functional, cell-based;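 further: cells exposed to compound for about 90 hours before reading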
[6] = Vero E6 cell cytotoxicity, dose response, cytotoxicity control for non-replicating M. tuberculosis project, secondary assay (AID 492998); format: functional, VeroE6; conditions: Vero C1008
cells = format: functional
[7] = THP-1 cell cytotoxicity, dose response, cytotoxicity control for non-replicating M. tuberculosis project (AID 489025); format: functional
[8] = target: T4, Heat shock factor protein 1 (Mus musculus, UniProt P38532); experiment: enhancement of HSF1-driven luciferase signal – cell-based, NIH3T3, luminescence, dose retest, confirmation (AID 435004); format: functional;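 further: stress induced by proteasome inhibitor MG132 added 30 min after compound; luciferase reporter driven by HSF1 response element in NIH3T3 cells; actives raise luminescence as potentiators of the MG132 stress response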
T4 sequence (P38532 whole entry): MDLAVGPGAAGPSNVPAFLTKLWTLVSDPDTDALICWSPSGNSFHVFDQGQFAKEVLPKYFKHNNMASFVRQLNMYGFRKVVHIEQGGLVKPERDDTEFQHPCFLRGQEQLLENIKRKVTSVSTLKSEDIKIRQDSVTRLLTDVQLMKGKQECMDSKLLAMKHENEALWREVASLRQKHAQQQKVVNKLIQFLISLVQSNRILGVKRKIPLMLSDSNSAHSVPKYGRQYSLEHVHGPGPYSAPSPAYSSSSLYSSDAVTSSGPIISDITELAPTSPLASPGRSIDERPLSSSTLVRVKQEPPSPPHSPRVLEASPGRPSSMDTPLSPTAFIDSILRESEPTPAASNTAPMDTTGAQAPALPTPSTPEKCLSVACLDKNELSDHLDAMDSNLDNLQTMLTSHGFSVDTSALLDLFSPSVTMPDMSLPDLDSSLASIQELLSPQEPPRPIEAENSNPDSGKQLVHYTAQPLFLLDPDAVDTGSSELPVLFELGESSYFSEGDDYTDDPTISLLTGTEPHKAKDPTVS

[9] = Luminescence Cell-Based Dose Response HTS to Identify Inhibitors of 5'UTR Stem-Loop Driven Prion Protein mRNA Translation in H4 Neuroglioblastoma Cells. [Related pubchem assays: 1827 (Project Summary), 1813 (Primary HTS)]; format: functional
[10] = alpha-synuclein stem-loop luciferase translation blockers – H4 neuroglioma cells, luminescence, confirmation (AID 1988); format: functional, cell-based
[11] = luciferase reporter signal suppression in cells – H4 neuroglioma cells, luminescence, dose response (AID 1990); format: functional, cell-based
[12] = NIH-3T3 fibroblast cytotoxicity, dose response, cytotoxicity control, cell-based, fluorescence, Alamar Blue, secondary assay (AID 2327); format: functional;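 further: NIH-3T3 mouse fibroblasts cultured with fluconazole at 8 µg/mL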
[13] = fluconazole-exposed Candida albicans growth modulators – fluorescence, retest, confirmation (AID 2467); format: functional, cell-based
[14] = target: T5, Ubiquitin-conjugating enzyme E2 N (Homo sapiens, UniProt P61088); format: functional;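 further: Dose-response confirmation in a TR-FRET assay detecting UBC13-driven polyubiquitin chain formation, inhibition measured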
T5 sequence (P61088 whole entry): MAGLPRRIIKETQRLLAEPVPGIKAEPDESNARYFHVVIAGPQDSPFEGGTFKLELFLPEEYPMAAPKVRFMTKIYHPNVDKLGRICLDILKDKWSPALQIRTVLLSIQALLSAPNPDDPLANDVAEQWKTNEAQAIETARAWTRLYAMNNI

[15] = target: T6, DNA repair protein RAD52 homolog (Homo sapiens, UniProt P43351); format: functional, biochemical
T6 sequence (P43351 whole entry): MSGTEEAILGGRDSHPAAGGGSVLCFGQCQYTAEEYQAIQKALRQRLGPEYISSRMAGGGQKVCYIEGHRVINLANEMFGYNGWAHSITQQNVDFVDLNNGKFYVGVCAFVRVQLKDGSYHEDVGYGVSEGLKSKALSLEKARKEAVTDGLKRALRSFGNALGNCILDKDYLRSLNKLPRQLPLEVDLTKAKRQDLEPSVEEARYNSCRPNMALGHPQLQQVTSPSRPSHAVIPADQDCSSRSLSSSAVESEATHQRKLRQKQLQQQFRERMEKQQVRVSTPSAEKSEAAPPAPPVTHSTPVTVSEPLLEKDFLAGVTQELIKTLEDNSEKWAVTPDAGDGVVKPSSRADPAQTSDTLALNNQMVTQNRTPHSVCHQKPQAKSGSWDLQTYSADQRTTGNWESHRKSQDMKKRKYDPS

[16] = intracellular Trypanosoma cruzi inhibitors in host cells – cell-based, plate reader, cherry-pick samples, set 3, dose response (AID 651818); format: functional;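 further: compounds incubated with infected cells for about four days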

SMILES: Cc1csc2ncnc(N3CCN(C(=O)Nc4ccc(OC(F)(F)F)cc4)CC3)c12
- IC50 [1]: 6.79 µM (not active)

SMILES: CN(C(=O)COC(=O)c1cnc(Cl)c(Cl)c1)C1CCS(=O)(=O)C1 (stereo not drawn)
- IC50 [1]: 3.14 µM (not active)

SMILES: CC1(C)CC2CC(C)(CN2C(=O)COC(=O)Cn2[nH]c(=O)c3ccccc3c2=O)C1 (stereo not drawn)
- IC50 (H9c2): 12.1 µM (active)

SMILES: COc1cc(Br)cc(CNc2ccc(F)c([N+](=O)[O-])c2)c1O
- IC50 [1]: 2.79 µM (active)

SMILES: O=C(NCCCN1CCN(CCCNC(=O)c2ccc3c(c2)OCO3)CC1)c1ccc2c(c1)OCO2
- EC50 [2]: 0.267 µM (active)

SMILES: O=C(CN1C(=O)/C(=C2/SC(=S)N(CCS(=O)(=O)O)C2=O)c2ccccc21)Nc1cccc(Br)c1
- IC50 (Genome polyprotein): 61.6 µM (active)
- IC50 [3]: 3.22 µM (active)

SMILES: COc1cc(Nc2nc3ccccc3n3nnnc23)cc(OC)c1OC
- IC50 (H9c2): > 79 µM (inactive)

SMILES: Clc1cccc(OCCN2CCNCC2)c1
- EC50 [4]: 0.744 µM (active)
- EC50 [2]: 0.841 µM (active)
- EC50 [5]: > 60 µM (not active)

SMILES: Cc1cc(N2CCN(c3ccccc3)CC2)nc(-n2nc(C)cc2C)n1
- CC50 [6]: > 20 µM (active)
- IC50 (cells): 0.94 µM (active)
- CC50 [7]: > 40 µM (active)

SMILES: CC1(C)OC(=O)C(=Cc2ccc(-c3ccc(Cl)c(C(=O)O)c3)o2)C(=O)O1
- IC50 [3]: 4.62 µM (active)

SMILES: CSc1ccc(CCNC(=O)CSc2ccsc2[N+](=O)[O-])cc1
- IC50 [3]: 7.88 µM (active)

SMILES: COc1cccc(NC(=O)CC2SC(Nc3ccccc3)=NC2=O)c1 (stereo not drawn)
- IC50 [1]: > 50 µM (not active)

SMILES: CCCN1C(=O)c2ccccc2NC1c1ccc(Cl)c(Cl)c1 (stereo not drawn)
- EC50 [8]: 59.6 µM (active)
- EC50 [9]: > 120 µM (not active)
- EC50 [10]: 38.8 µM (active)
- EC50 [11]: 16 µM (active)

SMILES: CC(=O)Nc1ccccc1/C=C/c1ccc2c(C)cc(C)c(O)c2n1
- IC50 [1]: 10.9 µM (not active)
- EC50 [12]: 31.3 µM (active)
- EC50 [13]: > 38 µM (not active)

SMILES: CCCn1c(=O)c(C(=O)Nc2ccccc2)c(O)c2ccccc21
- IC50 (H9c2): 9.48 µM (active)

SMILES: Cc1ccc(S(=O)(=O)N2CCN(C(=O)c3cc(O)nc4ccccc34)CC2)c(C)c1
- IC50 (H9c2): > 79 µM (inactive)

SMILES: Cc1ccc(-n2nc(-c3ccco3)cc2C(=O)O)cc1
- IC50 [3]: 3.82 µM (active)

SMILES: CC[C@H](C)Cc1cn([C@@H](CCCCN)C(=O)NCCCCCCCCCCC(=O)N2CCNCC2)nn1
- IC50 [14]: > 20 µM (inactive)
- AC50 [15]: 13.2 µM (active)

SMILES: CC1=C(/C=C/C(=O)O)C(C)(C)CCC1
- EC50 [8]: > 260 µM (inactive)

SMILES: CCOC(=O)NC(C(F)(F)F)(C(F)(F)F)P(=O)(c1ccccc1)c1ccccc1
- IC50 [1]: > 50 µM (not active)

SMILES: O=C(Nc1cccc(Cl)c1)N1CCC(CO)(CCOc2ccccc2)CC1
- EC50 [8]: 45 µM (active)

SMILES: COc1ccc(CCN2C(=O)C3C(C2=O)C2C=CC3C23CC3)cc1OC (stereo not drawn)
- EC50 [8]: > 260 µM (inactive)

SMILES: CC(=O)N(CCN(C)C)c1nc2cc3c(cc2s1)OCCO3
- AC50 [15]: 11.4 µM (active)

SMILES: CCCCCc1c(O)nc(SCCN(C)C)nc1O
- EC50 [2]: 4.22 µM (active)

SMILES: COCCN1CCN(c2c3c(nc4cc(-c5cccc(F)c5)nn24)CCC3)CC1
- IC50 (H9c2): 6.93 µM (active)

SMILES: COc1ccc(-c2cc3nc(NCCCN(C)C)n(C)c(=O)c3s2)c(C)c1
- AC50 [15]: 29.3 µM (active)

SMILES: NC(=O)c1cc2ccccc2o/c1=N\NC(=O)c1ccc(F)cc1
- IC50 (H9c2): > 79 µM (inactive)

SMILES: Cc1sc2nc(C)n(/N=C/c3ccc(O)cc3O)c(=O)c2c1C
- EC50 [8]: > 260 µM (inactive)

SMILES: C[C@@H]1CCCCO[C@@H](CN(C)C(=O)Nc2ccc(C(F)(F)F)cc2)[C@@H](C)CN([C@H](C)CO)C(=O)c2cc(NS(=O)(=O)c3ccc(F)cc3)ccc2O1
- AC50 [16]: 1.85 µM (active)

SMILES: COc1ccc(/C=N/NC(=O)C2COc3ccccc3O2)cc1OC (stereo not drawn)
- EC50 [2]: 0.841 µM (active)

SMILES: O=C(Oc1ccc(/C=N/NC(=O)c2ccccc2O)cc1)c1ccccc1
- IC50 [3]: 8.03 µM (active)

SMILES: COc1cc(/C=C2/SC(=S)N(CCC(=O)Nc3ccc(C(=O)O)cc3)C2=O)cc(OC)c1OC
- IC50 [3]: 6.91 µM (active)
